Data as given in US9518061B2, “Substituted pyrazolylpyrazole derivative and use of same as herbicide” (KYOYU AGRI CO., LTD., priority 2013, dated 2016).

Assays:
Type in all cases: in vivo
[1] = system: Monochoria vaginalis; assay: Paddy herbicidal activity test; details: irrigated paddy pot, 30 days
Method: (§1) 1. Paddy Herbicidal Activity Test
(§2) Rice paddy soil was filled into a 1/10000 are pot followed by the addition of suitable amounts of water and chemical fertilizer, kneading, seeding with Echinochloa crus-galli, Monochoria vaginalis and Scirpus juncoides and maintaining in an irrigated state at a water depth of 3 cm.
(§3) Wettable powder of Target Compound (I) shown in Table 1 prepared in compliance with the preparation examples were diluted with a suitable amount of water, rice plants in the 2.0 leaf stage were transplanted during 3.5 leaf stage of Echinochloa crus-galli, and treated by dropping in chemical in the prescribed amount per are using a pipette.
(§4) After treating for 30 days in a glass greenhouse at an average atmospheric temperature of 30° C., the herbicidal efficacy thereof was investigated.
(§5) Evaluation of herbicidal efficacy was carried out by comparing growth inhibition rate (%) with an untreated group, while evaluation of phytotoxicity was carried out by comparing growth inhibition rate (%) with the state of a complete eradication group, and were evaluated at 11 levels indicated below.

[2] = system: Scirpus juncoides; assay: Paddy herbicidal activity test; details: irrigated paddy pot, 30 days
Method: as §1, §2, §3, §4, §5

[3] = system: Echinochloa crus-galli; assay: Paddy herbicidal activity test; details: irrigated paddy pot, treated at 3.5 leaf stage of Echinochloa crus-galli, 30 days
Method: as §1, §2, §3, §4, §5

[4] = system: Rice plants; assay: Paddy herbicidal activity test, phytotoxicity to transplanted rice; details: rice transplanted in 2.0 leaf stage, 30 days
Method: as §1, §2, §3, §4, §5

| Compound | herbicidal efficacy (growth inhibition rate level) Monochoria vaginalis ([1]; 1g a.i./10a) | herbicidal efficacy (growth inhibition rate level) Monochoria vaginalis ([1]; 5g a.i./10a) | herbicidal efficacy (growth inhibition rate level) Scirpus juncoides ([2]; 1g a.i./10a) | herbicidal efficacy (growth inhibition rate level) Scirpus juncoides ([2]; 5g a.i./10a) | herbicidal efficacy (growth inhibition rate level) Echinochloa crus-galli ([3]; 1g a.i./10a) | herbicidal efficacy (growth inhibition rate level) Echinochloa crus-galli ([3]; 5g a.i./10a) | phytotoxicity (growth inhibition rate level) Rice plants ([4]; 1g a.i./10a) | phytotoxicity (growth inhibition rate level) Rice plants ([4]; 5g a.i./10a) |
| --- | --- | --- | --- | --- | --- | --- | --- | --- |
| N#Cc1cnn(-c2nn3c(c2Cl)CCCC3)c1N(CCC(F)(F)F)C(=O)C(F)(F)F [Compound 4] | 8 (80% to less than 90%) | 8 (80% to less than 90%) | 9 (90% to less than 100%) | 9 (90% to less than 100%) | 9 (90% to less than 100%) | 10 (100%) | 0 (0 (exponent): 0% to less than 10% (growth inhibition rate)) | 0 (0 (exponent): 0% to less than 10% (growth inhibition rate)) |
| COCCCN(C(=O)C(F)(F)F)c1c(C#N)cnn1-c1nn2c(c1Br)CCCC2 [Compound 15] | 8 (80% to less than 90%) | 8 (80% to less than 90%) | 8 (80% to less than 90%) | 9 (90% to less than 100%) | 9 (90% to less than 100%) | 10 (100%) | 0 (0 (exponent): 0% to less than 10% (growth inhibition rate)) | 1 (10% to less than 20%) |
| CCOCCN(C(=O)C(F)(F)F)c1c(C#N)cnn1-c1nn2c(c1Br)CCCC2 [Compound 14] | 7 (70% to less than 80%) | 8 (80% to less than 90%) | 8 (80% to less than 90%) | 9 (90% to less than 100%) | 9 (90% to less than 100%) | 9 (90% to less than 100%) | 1 (10% to less than 20%) | 1 (10% to less than 20%) |
| N#Cc1cnn(-c2nn3c(c2Br)CCCC3)c1N(CCC(F)(F)F)C(=O)C(F)(F)F [Compound 18] | 7 (70% to less than 80%) | 8 (80% to less than 90%) | 9 (90% to less than 100%) | 9 (90% to less than 100%) | 9 (90% to less than 100%) | 10 (100%) | 0 (0 (exponent): 0% to less than 10% (growth inhibition rate)) | 1 (10% to less than 20%) |
| COCCN(C(=O)C(F)(F)F)c1c(C#N)cnn1-c1nn2c(c1Br)CCCC2 [Compound 13] | 8 (80% to less than 90%) | 9 (90% to less than 100%) | 7 (70% to less than 80%) | 8 (80% to less than 90%) | 9 (90% to less than 100%) | 9 (90% to less than 100%) | 0 (0 (exponent): 0% to less than 10% (growth inhibition rate)) | 1 (10% to less than 20%) |
| N#Cc1cnn(-c2nn3c(c2Cl)CCCC3)c1N(CC(F)(F)F)C(=O)C(F)(F)F [Compound 8] | 9 (90% to less than 100%) | 9 (90% to less than 100%) | 9 (90% to less than 100%) | 10 (100%) | 8 (80% to less than 90%) | 9 (90% to less than 100%) | 0 (0 (exponent): 0% to less than 10% (growth inhibition rate)) | 0 (0 (exponent): 0% to less than 10% (growth inhibition rate)) |
| N#Cc1cnn(-c2nn3c(c2Cl)CCCC3)c1N(CCC(F)(F)F)C(=O)C(F)(F)C(F)(F)F [Compound 7] | 7 (70% to less than 80%) | 9 (90% to less than 100%) | 8 (80% to less than 90%) | 8 (80% to less than 90%) | 9 (90% to less than 100%) | 9 (90% to less than 100%) | 0 (0 (exponent): 0% to less than 10% (growth inhibition rate)) | 0 (0 (exponent): 0% to less than 10% (growth inhibition rate)) |
| COCCN(C(=O)C(F)(F)F)c1c([N+](=O)[O-])cnn1-c1nn2c(c1Br)CCCC2 [Compound 23] | 8 (80% to less than 90%) | 8 (80% to less than 90%) | 8 (80% to less than 90%) | 8 (80% to less than 90%) | 7 (70% to less than 80%) | 8 (80% to less than 90%) | 0 (0 (exponent): 0% to less than 10% (growth inhibition rate)) | 0 (0 (exponent): 0% to less than 10% (growth inhibition rate)) |
| N#Cc1cnn(-c2nn3c(c2Cl)CCCC3)c1N(CCCCl)C(=O)C(F)(F)F [Compound 3] | 7 (70% to less than 80%) | 8 (80% to less than 90%) | 8 (80% to less than 90%) | 8 (80% to less than 90%) | 8 (80% to less than 90%) | 9 (90% to less than 100%) | 1 (10% to less than 20%) | 1 (10% to less than 20%) |
| CCOCCN(C(=O)C(F)(F)F)c1c(C#N)cnn1-c1nn2c(c1Cl)CCCC2 [Compound 5] | 8 (80% to less than 90%) | 8 (80% to less than 90%) | 8 (80% to less than 90%) | 9 (90% to less than 100%) | 9 (90% to less than 100%) | 9 (90% to less than 100%) | 0 (0 (exponent): 0% to less than 10% (growth inhibition rate)) | 1 (10% to less than 20%) |
| N#Cc1cnn(-c2nn3c(c2Br)CCCC3)c1N(CCCCl)C(=O)C(F)(F)F [Compound 17] | 9 (90% to less than 100%) | 9 (90% to less than 100%) | 7 (70% to less than 80%) | 8 (80% to less than 90%) | 8 (80% to less than 90%) | 8 (80% to less than 90%) | 0 (0 (exponent): 0% to less than 10% (growth inhibition rate)) | 0 (0 (exponent): 0% to less than 10% (growth inhibition rate)) |
| COCCCN(C(=O)C(F)(F)F)c1c(C#N)cnn1-c1nn2c(c1Cl)CCCC2 [Compound 6] | 8 (80% to less than 90%) | 9 (90% to less than 100%) | 7 (70% to less than 80%) | 8 (80% to less than 90%) | 9 (90% to less than 100%) | 10 (100%) | 0 (0 (exponent): 0% to less than 10% (growth inhibition rate)) | 0 (0 (exponent): 0% to less than 10% (growth inhibition rate)) |
